Literature values in patent US8946160B2, “Nitric oxide amino acid esters for improving vascular circulation, and prophylaxis or treatment of a condition associated with impaired blood circulation” (Oral Delivery Technology Ltd., priority 2010, dated 2015).

Q: With `O=[N+]([O-])OCC(CO[N+](=O)[O-])O[N+](=O)[O-]` [nitroglycerin] as the compound, how does the “maximum shelf life of a product containing nitroglycerin” value read?
A: about six
